Results taken from the supplement of paper PMC10307832.

Columns and labels:
Test in all cases: relative viability (nuclei count vs DMSO), 5 days (fraction); higher = more cells survive
[1] = test system: 201T
How it was run: (§1)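 One day after seeding in 1536-well plates, lung cancer cell lines were dosed by pin tool. Dosing was either single-drug or a fixed anchor-drug dose plus five library-drug doses (not always all listed) in √10 steps. After 5 days, nuclei were stained in one fix-and-stain step and counted on 4× images, and relative viability is the nuclei count of treated wells over that of vehicle wells, given as the median of duplicate plates.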

[2] = test system: BEN
How it was run: as §1

[3] = test system: EMC-BAC-2
How it was run: as §1

[4] = test system: HARA
How it was run: as §1

[5] = test system: HCC-44
How it was run: as §1

[6] = test system: LCLC-103H
How it was run: as §1

[7] = test system: LOU-NH91
How it was run: as §1

[8] = test system: NCI-H1395
How it was run: as §1

[9] = test system: NCI-H1993
How it was run: as §1

[10] = test system: NCI-H2023
How it was run: as §1

[11] = test system: NCI-H2087
How it was run: as §1

[12] = test system: NCI-H2126
How it was run: as §1

[13] = test system: NCI-H2347
How it was run: as §1

[14] = test system: NCI-H23
How it was run: as §1

[15] = test system: NCI-H3122
How it was run: as §1

[16] = test system: NCI-H441
How it was run: as §1

[17] = test system: NCI-H522
How it was run: as §1

[18] = test system: NCI-H596
How it was run: as §1

[19] = test system: NCI-H647
How it was run: as §1

[20] = test system: NCI-H650
How it was run: as §1

[21] = test system: NCI-H838
How it was run: as §1

For `CCN(CC)CCCCNc1ncc2cc(-c3cc(OC)cc(OC)c3)c(NC(=O)NC(C)(C)C)nc2n1` + Nc1nc2[nH]cc(CCc3ccc(C(=O)N[C@@H](CCC(=O)O)C(=O)O)cc3)c2c(=O)[nH]1 [Pemetrexed] (partner 0.2 µM), the relative viability ([1]; first compound 0.01 µM) was 0.351, the relative viability ([1]; first compound 0.03162 µM) was 0.315 and the relative viability ([1]; first compound 0.1 µM) was 0.331. For the same molecule, the relative viability ([1]; first compound 0.3162 µM) was 0.349, the relative viability ([1]; first compound 1 µM) was 0.313 and the relative viability ([2]; first compound 0.01 µM) was 0.664. It also gave a relative viability ([2]; first compound 0.03162 µM) of 0.681, a relative viability ([2]; first compound 0.1 µM) of 0.826 and a relative viability ([2]; first compound 0.3162 µM) of 0.77. For the same molecule, the relative viability ([2]; first compound 1 µM) was 0.69, the relative viability ([3]; first compound 0.03162 µM) was 0.46 and the relative viability ([3]; first compound 0.1 µM) was 0.491. It also gave a relative viability ([3]; first compound 0.3162 µM) of 0.479, a relative viability ([3]; first compound 1 µM) of 0.489 and a relative viability ([4]; first compound 0.01 µM) of 0.202. The relative viability ([4]; first compound 0.03162 µM) was 0.234, the relative viability ([4]; first compound 0.1 µM) was 0.279 and the relative viability ([4]; first compound 0.3162 µM) was 0.22. It also gave a relative viability ([4]; first compound 1 µM) of 0.281, a relative viability ([5]; first compound 0.01 µM) of 0.682 and a relative viability ([5]; first compound 0.03162 µM) of 0.705. It also gave a relative viability ([5]; first compound 0.1 µM) of 0.634, a relative viability ([5]; first compound 0.3162 µM) of 0.625 and a relative viability ([5]; first compound 1 µM) of 0.721. It also gave a relative viability ([6]; first compound 0.01 µM) of 0.444, a relative viability ([6]; first compound 0.03162 µM) of 0.488 and a relative viability ([6]; first compound 0.1 µM) of 0.485. The relative viability ([6]; first compound 0.3162 µM) was 0.457, the relative viability ([6]; first compound 1 µM) was 0.533 and the relative viability ([7]; first compound 0.01 µM) was 0.406. The relative viability ([7]; first compound 0.03162 µM) was 0.376, the relative viability ([7]; first compound 0.1 µM) was 0.641 and the relative viability ([7]; first compound 0.3162 µM) was 0.388. For the same molecule, the relative viability ([7]; first compound 1 µM) was 0.433, the relative viability ([8]; first compound 0.01 µM) was 0.898 and the relative viability ([8]; first compound 0.03162 µM) was 0.787. It also gave a relative viability ([8]; first compound 0.1 µM) of 0.955, a relative viability ([8]; first compound 0.3162 µM) of 1.06 and a relative viability ([8]; first compound 1 µM) of 0.607. The relative viability ([9]; first compound 0.01 µM) was 0.57, the relative viability ([9]; first compound 0.03162 µM) was 0.583 and the relative viability ([9]; first compound 0.1 µM) was 0.652. For the same molecule, the relative viability ([9]; first compound 0.3162 µM) was 0.689, the relative viability ([9]; first compound 1 µM) was 0.707 and the relative viability ([10]; first compound 0.01 µM) was 0.264. The relative viability ([10]; first compound 0.03162 µM) was 0.225, the relative viability ([10]; first compound 0.1 µM) was 0.323 and the relative viability ([10]; first compound 0.3162 µM) was 0.264. It also gave a relative viability ([10]; first compound 1 µM) of 0.219, a relative viability ([11]; first compound 0.01 µM) of 0.716 and a relative viability ([11]; first compound 0.03162 µM) of 0.637. It also gave a relative viability ([11]; first compound 0.1 µM) of 0.746, a relative viability ([11]; first compound 0.3162 µM) of 0.645 and a relative viability ([11]; first compound 1 µM) of 0.727. For the same molecule, the relative viability ([12]; first compound 0.01 µM) was 0.646, the relative viability ([12]; first compound 0.03162 µM) was 0.764 and the relative viability ([12]; first compound 0.1 µM) was 0.644. For the same molecule, the relative viability ([12]; first compound 0.3162 µM) was 0.661, the relative viability ([12]; first compound 1 µM) was 0.749 and the relative viability ([13]; first compound 0.01 µM) was 0.419. The relative viability ([13]; first compound 0.03162 µM) was 0.555, the relative viability ([13]; first compound 0.1 µM) was 0.423 and the relative viability ([13]; first compound 0.3162 µM) was 0.412. The relative viability ([13]; first compound 1 µM) was 0.382, the relative viability ([14]; first compound 0.01 µM) was 0.666 and the relative viability ([14]; first compound 0.03162 µM) was 0.566. The relative viability ([14]; first compound 0.1 µM) was 0.854, the relative viability ([14]; first compound 0.3162 µM) was 0.778 and the relative viability ([14]; first compound 1 µM) was 0.646. For the same molecule, the relative viability ([15]; first compound 0.01 µM) was 0.208, the relative viability ([15]; first compound 0.03162 µM) was 0.186 and the relative viability ([15]; first compound 0.1 µM) was 0.208. For the same molecule, the relative viability ([15]; first compound 0.3162 µM) was 0.203, the relative viability ([15]; first compound 1 µM) was 0.223 and the relative viability ([16]; first compound 0.01 µM) was 0.257. The relative viability ([16]; first compound 0.03162 µM) was 0.232, the relative viability ([16]; first compound 0.1 µM) was 0.26 and the relative viability ([16]; first compound 0.3162 µM) was 0.249. For the same molecule, the relative viability ([16]; first compound 1 µM) was 0.25, the relative viability ([17]; first compound 0.01 µM) was 0.989 and the relative viability ([17]; first compound 0.03162 µM) was 0.918. For the same molecule, the relative viability ([17]; first compound 0.1 µM) was 1.09, the relative viability ([17]; first compound 0.3162 µM) was 0.888 and the relative viability ([17]; first compound 1 µM) was 0.921. It also gave a relative viability ([18]; first compound 0.01 µM) of 0.453, a relative viability ([18]; first compound 0.03162 µM) of 0.496 and a relative viability ([18]; first compound 0.1 µM) of 0.488. It also gave a relative viability ([18]; first compound 0.3162 µM) of 0.584, a relative viability ([18]; first compound 1 µM) of 0.443 and a relative viability ([19]; first compound 0.01 µM) of 0.188. For the same molecule, the relative viability ([19]; first compound 0.03162 µM) was 0.127, the relative viability ([19]; first compound 0.1 µM) was 0.157 and the relative viability ([19]; first compound 0.3162 µM) was 0.161. It also gave a relative viability ([19]; first compound 1 µM) of 0.136, a relative viability ([20]; first compound 0.01 µM) of 0.877 and a relative viability ([20]; first compound 0.03162 µM) of 0.842. For the same molecule, the relative viability ([20]; first compound 0.1 µM) was 1.04, the relative viability ([20]; first compound 0.3162 µM) was 1.03 and the relative viability ([20]; first compound 1 µM) was 0.948. It also gave a relative viability ([21]; first compound 0.01 µM) of 0.242, a relative viability ([21]; first compound 0.03162 µM) of 0.245 and a relative viability ([21]; first compound 0.1 µM) of 0.225. It also gave a relative viability ([21]; first compound 0.3162 µM) of 0.234 and a relative viability ([21]; first compound 1 µM) of 0.224.
